Source: PMC8568530, “Inhibition of Vascular Smooth Muscle and Cancer Cell Proliferation by New VEGFR Inhibitors and Their Immunomodulator Effect: Design, Synthesis, and Biological Evaluation” (Oxidative Medicine and Cellular Longevity, 2021)

How the values were obtained:
HepG-2 = assay: MTT antiproliferative assay, HepG-2; assay type: cell-based; conditions: Homo sapiens, HepG2, hepatocellular carcinoma HepG-2
Procedure: (§1) The in vitro antiproliferative activities of the newly synthesized compounds were evaluated against a panel of three human tumor cell lines, namely, breast cancer (MCF-7), hepatocellular carcinoma (HepG-2), and colorectal carcinoma (HCT-116) using the standard MTT method. The tested cell lines were selected depending on their VEGF overexpression. Sorafenib, the lead drug, was coassayed as a positive control.
(§2) The antiproliferative activity of the synthesized compounds was evaluated using MTT protocol as described (Supplementary data (available here)).

[1] = test system: WI-38 cell line (normal human lung fibroblasts); assay: MTT cytotoxicity against normal cells WI-38; assay type: cell-based; conditions: normal human lung fibroblasts WI-38
Procedure: The cytotoxicity values of the synthesized compounds against the WI-38 cell line (normal human lung fibroblasts) were also evaluated in vitro.
as §2

HCT-116 = assay: MTT antiproliferative assay, HCT-116; assay type: cell-based; conditions: Homo sapiens, colorectal carcinoma HCT-116
Procedure: as §1, §2

MCF-7 = assay: MTT antiproliferative assay, MCF-7; assay type: cell-based; conditions: Homo sapiens, MCF7, breast cancer MCF-7
Procedure: as §1, §2

TNF-α = TNF-α in HepG-2 supernatant (ELISA); assay type: cell-based, human
Excerpt: (1) Estimation of Human Tumor Necrosis Factor Alpha (TNF-α) in HepG-2 Supernatant. […] Celecoxib, a potent inhibitor of TNF-α-induced cytokine expressions, was used as a positive control. […] Among the tested compounds, compound 7a caused a remarkably significant reduction in TNF-α levels (87%) in comparison to celecoxib (86%).
The levels of TNF-α in cell culture supernatants were estimated by the ELISA technique according to the reported procedure.

caspase-3 = assay: Active caspase-3 level in HepG-2 cells; assay type: cell-based, human; conditions: for Caspase 3 Conc.: HepG-2 cells treated with compound; for Caspase 3 Fold: HepG-2 cells, versus control
Excerpt: (1) Effects on the Levels of Active Caspase-3. A significant mechanism by which anticancer agents can affect cancer cells is apoptosis. Apoptosis is a process of automated cell death. The apoptosis mechanism is typically mediated by a group of proteases called caspases. Caspase-3 is activated in every mammalian cell type provoking the cell to die, considered one of the apoptosis marks.
(1) Effects on the Levels of Active Caspase-3. […] (Supplementary data).

VEGFR-2 = VEGFR-2 (Homo sapiens, UniProt P35968); assay: In vitro VEGFR-2 enzyme inhibition assay; assay type: biochemical; conditions: read-out: IC50 against VEGFR-2
VEGFR-2, sequence (P35968 20-1356): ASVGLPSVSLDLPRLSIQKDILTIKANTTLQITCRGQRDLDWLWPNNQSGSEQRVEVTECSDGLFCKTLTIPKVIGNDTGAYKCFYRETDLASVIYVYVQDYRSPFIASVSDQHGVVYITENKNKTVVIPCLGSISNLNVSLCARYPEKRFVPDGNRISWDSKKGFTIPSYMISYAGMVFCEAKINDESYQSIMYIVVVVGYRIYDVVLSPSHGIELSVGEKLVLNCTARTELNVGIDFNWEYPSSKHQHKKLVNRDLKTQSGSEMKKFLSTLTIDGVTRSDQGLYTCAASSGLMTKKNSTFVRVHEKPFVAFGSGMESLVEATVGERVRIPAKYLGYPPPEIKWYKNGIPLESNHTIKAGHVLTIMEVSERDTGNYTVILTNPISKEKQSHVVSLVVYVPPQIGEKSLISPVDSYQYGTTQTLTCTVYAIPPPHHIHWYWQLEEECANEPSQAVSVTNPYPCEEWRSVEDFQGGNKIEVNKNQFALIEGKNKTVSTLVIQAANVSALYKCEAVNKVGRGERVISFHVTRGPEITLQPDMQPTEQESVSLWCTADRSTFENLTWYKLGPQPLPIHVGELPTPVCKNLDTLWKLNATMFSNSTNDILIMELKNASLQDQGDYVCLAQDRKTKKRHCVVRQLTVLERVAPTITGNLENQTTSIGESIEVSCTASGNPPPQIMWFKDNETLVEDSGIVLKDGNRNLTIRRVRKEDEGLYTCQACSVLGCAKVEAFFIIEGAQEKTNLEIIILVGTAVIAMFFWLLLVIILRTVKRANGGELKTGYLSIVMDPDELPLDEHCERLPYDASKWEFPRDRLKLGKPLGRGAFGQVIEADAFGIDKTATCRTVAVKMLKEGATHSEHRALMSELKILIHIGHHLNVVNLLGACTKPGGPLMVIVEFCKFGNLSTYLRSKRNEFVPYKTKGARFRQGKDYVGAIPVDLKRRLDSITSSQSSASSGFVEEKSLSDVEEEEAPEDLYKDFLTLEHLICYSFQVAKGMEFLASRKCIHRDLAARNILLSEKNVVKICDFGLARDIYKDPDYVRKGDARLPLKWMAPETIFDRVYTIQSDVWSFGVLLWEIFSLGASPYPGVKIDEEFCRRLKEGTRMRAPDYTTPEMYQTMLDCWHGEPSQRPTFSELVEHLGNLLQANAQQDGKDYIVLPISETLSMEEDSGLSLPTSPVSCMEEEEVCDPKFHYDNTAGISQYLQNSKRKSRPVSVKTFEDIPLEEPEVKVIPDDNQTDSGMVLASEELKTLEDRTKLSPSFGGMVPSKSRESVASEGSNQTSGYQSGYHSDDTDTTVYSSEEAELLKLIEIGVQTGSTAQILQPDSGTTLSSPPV

Bcl-2 = Bcl-2 level in HepG-2 cells; assay type: cell-based, human; conditions: for Bcl-2 Conc.: HepG-2 cells treated with compound; for Bcl-2 Fold: HepG-2 cells, versus control
Excerpt: (§3) (2) Effects on Bcl-2 Family Proteins. The Bcl-2 family proteins are vital regulators of apoptosis cell death. Members of this family include the proapoptotic factor Bax which promotes cell death and the prosurvival (antiapoptotic) Bcl-2 which suppresses cell death. […] Results are expressed in Table 3.
(§4) (2) Effects on Bcl-2 Family Proteins. […] (Supplementary data).

BAX = BAX level in HepG-2 cells; assay type: cell-based, human; conditions: for BAX Conc.: HepG-2 cells treated with compound; for BAX Fold: HepG-2 cells, versus control
Excerpt: as §3, §4

SMILES	IC50 (HepG-2)	IC50 [1]	IC50 (HCT-116)	melting point	IC50 (MCF-7)	TNF-α % inhibition (TNF-α)	Caspase 3 Conc. (caspase-3)	Caspase 3 Fold (caspase-3)	IC50 (VEGFR-2)	Bcl-2 Conc. (Bcl-2)	Bcl-2 Fold (Bcl-2)	BAX Conc. (BAX)	BAX Fold (BAX)
O=C(NCc1ccccc1)c1ccc(NC(=O)c2cccnc2)cc1 [Compound 6, N-(4-(Benzylcarbamoyl)phenyl)nicotinamide]	15.5 µM	117 µM	16.4 µM	229 to 232 °C	18.3 µM	–	–	–	–	–	–	–	–
O=C(NNC(=O)C(F)(F)F)c1ccc(NC(=O)c2cccnc2)cc1 [Compound 10, N-(4-(2-(2,2,2-Trifluoroacetyl)hydrazine-1-carbonyl)phenyl)nicotinamide]	3.16 µM	78.4 µM	5.49 µM	–	3.55 µM	40%	334.57 pg/mL	6.51 fold	7.68 µM	2.72 pg/mL	0.51 fold	231.6 pg/mL	10.73 fold
O=C(Nc1ccc(Cl)cc1)c1ccc(NC(=O)c2cccnc2)cc1 [Compound 7e, N-(4-((4-Chlorophenyl)carbamoyl)phenyl)nicotinamide]	22.4 µM	143 µM	17.8 µM	272 to 274 °C	13.4 µM	–	–	–	–	–	–	–	–
O=C(CSc1nnc(-c2cccnc2)o1)Nc1ccccc1 [Compound 18b, N-Phenyl-2-((5-(pyridin-3-yl)-1,3,4-oxadiazol-2-yl)thio)acetamide]	6.11 µM	64.3 µM	4.19 µM	–	2.67 µM	54%	310.75 pg/mL	6.04 fold	6.57 µM	2.51 pg/mL	0.47 fold	154.4 pg/mL	7.15 fold
O=C(CSc1nnc(-c2cccnc2)o1)Nc1ccc(Cl)cc1 [Compound 18a, N-(4-Chlorophenyl)-2-((5-(pyridin-3-yl)-1,3,4-oxadiazol-2-yl)thio)acetamide]	8.29 µM	123 µM	5.13 µM	–	5.81 µM	45%	267.64 pg/mL	5.20 fold	5.23 µM	2.63 pg/mL	0.49 fold	113.5 pg/mL	5.26 fold
O=C(Nc1ccc(F)cc1)c1ccc(NC(=O)c2cccnc2)cc1 [Compound 7l, N-(4-((4-Fluorophenyl)carbamoyl)phenyl)nicotinamide]	2.64 µM	68.2 µM	2.75 µM	–	3.5 µM	74%	340.42 pg/mL	6.62 fold	3.84 µM	2.11 pg/mL	0.39 fold	226.9 pg/mL	10.51 fold
COc1ccc(/C=N/NC(=O)c2ccc(NC(=O)c3cccnc3)cc2)cc1 [Compound 11d, (E)-N-(4-(2-(4-Methoxybenzylidene)hydrazine-1-carbonyl)phenyl)-nicotinamide]	2.23 µM	50.3 µM	1.94 µM	–	4.15 µM	81%	391.23 pg/mL	–	2.74 µM	1.72 pg/mL	0.32 fold	237.9 pg/mL	11.02 fold
O=C(N/N=C/c1ccc(O)cc1)c1ccc(NC(=O)c2cccnc2)cc1 [Compound 11h, (E)-N-(4-(2-(4-Hydroxybenzylidene)hydrazine-1-carbonyl)phenyl)-nicotinamide]	31.1 µM	103 µM	34.9 µM	256 to 259 °C	20.2 µM	–	–	–	–	–	–	–	–
O=C(N/N=C/c1ccc(F)cc1)c1ccc(NC(=O)c2cccnc2)cc1 [Compound 11a, (E)-N-(4-(2-(4-Fluorobenzylidene)hydrazine-1-carbonyl)phenyl)-nicotinamide]	15.5 µM	85.1 µM	17.2 µM	263 to 265 °C	12.3 µM	–	–	–	–	–	–	–	–
CNC(=O)c1cc(Oc2ccc(NC(=O)Nc3ccc(Cl)c(C(F)(F)F)c3)cc2)ccn1 [Sorafenib, reference compound]	3.76 µM	–	5.28 µM	–	4.32 µM	–	–	–	–	–	–	–	–
O=C(N/N=C/c1ccccc1)c1ccc(NC(=O)c2cccnc2)cc1 [Compound 11b, (E)-N-(4-(2-Benzylidenehydrazine-1-carbonyl)phenyl)-nicotinamide]	17.6 µM	72.3 µM	13.4 µM	260 to 262 °C	15.5 µM	–	–	–	–	–	–	–	–
O=C(CSc1nnc(-c2cccnc2)o1)NCc1ccccc1 [Compound 18c, N-Benzyl-2-((5-(pyridin-3-yl)-1,3,4-oxadiazol-2-yl)thio)acetamide]	8.59 µM	92.1 µM	21.7 µM	167 to 169 °C	19.4 µM	–	–	–	–	–	–	–	–
O=C(N/N=C/c1c(Cl)cccc1Cl)c1ccc(NC(=O)c2cccnc2)cc1 [Compound 11e, (E)-N-(4-(2-(2,6-Dichlorobenzylidene)hydrazine-1-carbonyl)phenyl)-nicotinamide]	23.9 µM	80.1 µM	14.5 µM	283 to 285 °C	18.2 µM	–	–	–	–	–	–	–	–
O=C(Nc1ccc(C(=O)Nc2ccccc2[N+](=O)[O-])cc1)c1cccnc1 [Compound 7i, N-(4-((2-Nitrophenyl)carbamoyl)phenyl)nicotinamide]	15.2 µM	103 µM	18.4 µM	198 to 201 °C	16.1 µM	–	–	–	–	–	–	–	–
O=C(Nc1ccc(C(=O)Nc2ccc(Cl)cc2Cl)cc1)c1cccnc1 [Compound 7g, N-(4-((2,4-Dichlorophenyl)carbamoyl)phenyl)nicotinamide]	26.6 µM	132 µM	31.7 µM	189 to 192 °C	42.1 µM	–	–	–	–	–	–	–	–
O=C(Nc1ccccc1)c1ccc(NC(=O)c2cccnc2)cc1 [Compound 7d, N-(4-(Phenylcarbamoyl)phenyl)nicotinamide]	29.1 µM	144 µM	31.5 µM	232 to 235 °C	23.1 µM	–	–	–	–	–	–	–	–
COc1ccccc1NC(=O)c1ccc(NC(=O)c2cccnc2)cc1 [Compound 7c, N-(4-((2-Methoxyphenyl)carbamoyl)phenyl)nicotinamide]	19.4 µM	137 µM	15.3 µM	185 to 187 °C	11.8 µM	–	–	–	–	–	–	–	–
